According to patent publication US7348347B2, “Substituted 4,5,6,7-tetrahydrobenzthiazol-2-ylamine compounds” (Gruenenthal GmbH, priority 2004, dated 2008):

Experiments:
[1] = molecular target: T1, 5-HT uptake (Rattus norvegicus, UniProt P31652); assay: Inhibition of 5-HT uptake in rat brain synaptosomes; assay type: biochemical; conditions: [3H]-5-HT
T1 construct: from tissue; host or cells: rat brain synaptosomes (P2 fraction) from marrow (medulla) and pons
Description: The relevant literature reference is enclosed herein by reference and is to be regarded as part of the disclosure.
The homogenate is centrifuged at 4° C. for 10 minutes at 1000 g. Following subsequent centrifugation at 17,000 g for 55 minutes, the synaptosomes (P2 fraction) are obtained, which are then resuspended in 0.32 M […] (0.5 mL/100 mg of the original weight).
The respective uptake was measured in a 96 well microtiter plate. The volume was 250 μL and the incubation was carried out at room temperature (ca 20-25° C.) under a blanket of oxygen.
The 96 samples through were then filtered through a Unifilter GF/B® microtiter plate (Packard) and washed with 200 mL of incubated buffer with the aid of a “Brabdel Cell-Harvester MPXRI 96T”. The Unifilter GF/B plate was dried at 55° C. over a period of 1 h. The plate was then sealed with a back seal® (Packard) and there were then added 35 μL of scintillant fluid per well (Ultima Gold, Packard).
A detailed description of the method is disclosed in the literature, for example, in M. Ch.

[2] = molecular target: T2, NA transporter (Rattus norvegicus, UniProt Q63380); assay: Inhibition of noradrenaline uptake in rat brain synaptosomes; assay type: biochemical; conditions: 10 μM, rat synaptosomes (hypothalamus), [3H]-NA; for inhibition at 10 µM: read-out: % Inhibition of NA uptake [10 μM]
T2 construct: from tissue; host or cells: rat brain synaptosomes (P2 fraction) from hypothalamus
T2 sequence (Q63380 1-617): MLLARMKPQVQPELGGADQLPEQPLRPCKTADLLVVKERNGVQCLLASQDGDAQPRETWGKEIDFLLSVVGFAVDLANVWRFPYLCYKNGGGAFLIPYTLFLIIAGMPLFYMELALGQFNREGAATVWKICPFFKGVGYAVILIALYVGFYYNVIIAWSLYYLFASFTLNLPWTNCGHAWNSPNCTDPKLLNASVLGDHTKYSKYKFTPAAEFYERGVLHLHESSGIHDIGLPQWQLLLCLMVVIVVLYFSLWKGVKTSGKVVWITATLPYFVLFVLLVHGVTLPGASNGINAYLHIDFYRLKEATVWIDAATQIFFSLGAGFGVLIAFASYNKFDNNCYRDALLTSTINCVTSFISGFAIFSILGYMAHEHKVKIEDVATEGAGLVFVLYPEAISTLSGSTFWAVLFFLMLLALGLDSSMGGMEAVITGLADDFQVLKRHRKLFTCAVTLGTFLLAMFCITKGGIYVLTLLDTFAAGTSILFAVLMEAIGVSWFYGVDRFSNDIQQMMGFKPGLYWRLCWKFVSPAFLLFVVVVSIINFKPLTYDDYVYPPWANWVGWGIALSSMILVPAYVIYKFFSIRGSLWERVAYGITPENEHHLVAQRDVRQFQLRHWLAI
Description: II. […] For in vitro studies, synaptosomes of rat brain areas are freshly isolated, as described in the article “The isolation of nerve endings from brain” by E. G. Gray and […]. Anatomy 96, pages 79-88, 1962. The relevant literature reference is enclosed herein by reference and is to be regarded as part of the disclosure. […] The homogenate is centrifuged at 4° C. for 10 minutes at 1000 g. […] The respective uptake was measured in a 96 well microtiter plate. The volume was 250 μL and the incubation was carried out at room temperature (ca 20-25° C.) under a blanket of oxygen. […] The 96 samples through were then filtered through a Unifilter GF/B® microtiter plate (Packard) and washed with 200 mL of incubated buffer with the aid of a “Brabdel Cell-Harvester MPXRI 96T”. The Unifilter GF/B plate was dried at 55° C. over a period of 1 h. The plate was then sealed with a back seal® (Packard) and there were then added 35 μL of scintillant fluid per well (Ultima Gold, Packard). Following sealing with a top seal® (Packard) and following adjustment of the equilibrium (approximately over a period of 5 h), the radioactivity is determined in a 1450 Microbeta® (Wallac). […] The amount of protein used in the above determination corresponded to the values known from the literature, such as is described in “Protein measurement with the folin phenol reagent”, Lowry et al., J. Biol. Chem., 193, 265-275, 1951. A detailed description of the method is disclosed in the literature, for example, in […], and B. […] The relevant literature references are incorporated herein by reference and are to be regarded as part of the disclosure.

[3] = rat synaptosomes (medulla and pons)

T1 sequence (P31652 whole entry): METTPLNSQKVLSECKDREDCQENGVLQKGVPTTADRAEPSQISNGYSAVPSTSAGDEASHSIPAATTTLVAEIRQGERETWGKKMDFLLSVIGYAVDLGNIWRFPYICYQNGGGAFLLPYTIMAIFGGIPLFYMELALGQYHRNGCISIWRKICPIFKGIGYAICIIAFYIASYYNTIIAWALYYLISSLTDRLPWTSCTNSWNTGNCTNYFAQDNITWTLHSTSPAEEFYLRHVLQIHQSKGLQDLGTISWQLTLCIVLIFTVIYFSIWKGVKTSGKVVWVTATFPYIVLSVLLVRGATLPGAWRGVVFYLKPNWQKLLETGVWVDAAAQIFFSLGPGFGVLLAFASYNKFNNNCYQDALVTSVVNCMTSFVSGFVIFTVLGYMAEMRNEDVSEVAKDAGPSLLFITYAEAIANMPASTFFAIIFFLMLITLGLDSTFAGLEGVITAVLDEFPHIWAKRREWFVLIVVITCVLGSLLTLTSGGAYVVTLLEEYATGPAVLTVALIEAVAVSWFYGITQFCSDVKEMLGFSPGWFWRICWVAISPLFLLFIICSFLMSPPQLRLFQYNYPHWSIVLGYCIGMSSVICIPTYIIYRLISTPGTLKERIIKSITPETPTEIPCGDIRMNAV

Structure (SMILES) | % Inhibition of 5-HT uptake [10 μM] [1, 3] | % Inhibition of NA uptake [10 μM] [2] | inhibition at 10 µM [1, 3] | inhibition at 10 µM [2] | % Inhibition of 5-HT uptake [10 μM] ([1]; rat synaptosomes (and pons))
CCCCCC(=O)Nc1nc2c(s1)CCCC2C(=O)NCCCN1CCCCC1C (centres unmarked) [Example 18, 2-Hexanylamino-4,5,6,7-tetrahydrobenzthiazol-4-carboxylic acid[3-(2-methylpiperidin-1-yl)propyl]amide] | 57% | 43% |  |  | 
CCOc1ccccc1CN1CCC(CNC(=O)C2CCCc3sc(NC(=O)Cc4cccs4)nc32)C1 (centres unmarked) [Example 40] |  | 47% |  |  | 48%
CCOc1ccccc1C(=O)Nc1nc2c(s1)CCCC2C(=O)N1CCN(CCc2ccccc2)CC1 (centres unmarked) [Example 20, 2-Ethoxy-N-[4-(4-phenethylpiperazin-1-carbonyl)-4,5,6,7-tetrahydrobenzthiazol-2-yl]benzamide] |  |  | 64% | 77% | 
O=C(Cc1cccs1)Nc1nc2c(s1)CCCC2C(=O)NCCCN1CCOCC1 (centres unmarked) [Example 14] | 50% | 43% |  |  | 
CC(C(=O)Nc1nc2c(s1)CCCC2C(=O)N1CCN(C(C)C)CC1)c1ccccc1 (centres unmarked) [Example 10, N-[4-(4-Isopropylpiperazin-1-carbonyl)-4,5,6,7-tetrahydrobenzthiazol-2-yl]-2-phenylpropionamide] |  |  | 42% | 64% | 
CC(=O)c1ccc(N2CCN(C(=O)C3CCCc4sc(NC(=O)c5ccco5)nc43)CC2)cc1 (centres unmarked) [Example 8, Furan-2-carboxylic acid{4-[4-(4-acetylphenyl)piperazin-1-carbonyl]-4,5,6,7-tetrahydrobenzthiazol-2-yl}amide] | 89% | 78% |  |  | 
CC(C(=O)Nc1nc2c(s1)CCCC2C(=O)NCCC1CCCN1C)c1ccccc1 (centres unmarked) [Example 22, 2-(2-Phenylpropionylamino)-4,5,6,7-tetrahydrobenzthiazol-4-carboxylic acid [2-(1-methylpyrrolidin-2-yl)ethyl]amide] |  |  | 44% | 60% | 

More lines, main results first:

% Inhibition of 5-HT uptake [10 μM] [1, 3] | % Inhibition of NA uptake [10 μM] [2] | inhibition at 10 µM [1, 3] | inhibition at 10 µM [2] | Structure (SMILES) | % Inhibition of 5-HT uptake [10 μM] ([1]; rat synaptosomes (and pons))
 |  | 71% | 75% | CC(C)(C)CC(=O)Nc1nc2c(s1)CCCC2C(=O)NC1CCN(Cc2ccccc2OCc2ccccc2)C1 (centres unmarked) [Example 73, 2-(3,3-Dimethylbutyrylamino)-4,5,6,7-tetrahydrobenzthiazol-4-carboxylic acid [1-(2-benzyloxybenzyl)pyrrolidin-3-yl]amide] | 
 |  | 50% | 80% | O=C(Cc1ccc(F)cc1)Nc1nc2c(s1)CCCC2C(=O)N1CCN(c2ccccc2Cl)CC1 (centres unmarked) [Example 81, N-{4-[4-(2-Chlorophenyl)piperazin-1-carbonyl]-4,5,6,7-tetrahydrobenzthiazol-2-yl}-2-(4-fluorophenyl)acetamide] | 
97% | 42% |  |  | O=C(CC1CCCCC1)Nc1nc2c(s1)CCCC2C(=O)NCC1CCN(Cc2c(Cl)cccc2Cl)C1 (centres unmarked) [Example 67, 2-(2-cyclohexylacetylamino)-4,5,6,7-tetrahydrobenzthiazol-4-carboxylic acid[1-(2,6-dichlorobenzyl)pyrrolidin-3-yl]methylamide] | 
48% | 53% |  |  | O=C(Nc1nc2c(s1)CCCC2C(=O)N1CCN(c2ccccn2)CC1)c1ccoc1 (centres unmarked) [Example 64, Furan-3-carboxylic acid[4-(4-pyridin-2-ylpiperazin-1-carbonyl)-4,5,6,7-tetrahydrobenzthiazol-2-yl]amide] | 
 |  | 84% | 51% | O=C(CCc1ccccc1)Nc1nc2c(s1)CCCC2C(=O)N1CCN(c2cccc(C(F)(F)F)c2)CC1 (centres unmarked) [Example 72, 3-Phenyl-N-{4-[4-(3-trifluoromethylphenyl)piperazin-1-carbonyl]-4,5,6,7-tetrahydrobenzthiazol-2-yl}propionamide] | 
 |  | 56% | 46% | CC(C)(C)CC(=O)Nc1nc2c(s1)CCCC2C(=O)N1CCN(CC=Cc2ccccc2)CC1 (centres unmarked) [Example 87, 3,3-Dimethyl-N-{4-[4-(3-phenylallyl)piperazin-1-carbonyl]-4,5,6,7-tetrahydrobenzthiazol-2-yl}butyramide] | 
